Values after ≈ are worked out from the molar mass of the structure shown. Where two headings read alike, the source gives them in different places.
Legend:
[1] = tested on: A. fumigatus 1161; test: Microbroth dilution MIC80; assay type: cell-based; details: Aspergillus fumigatus, 1161
From the text: (§1) Compound library. The thiosemicarbazone derivatives Triapine and COTI-2 were purchased from Med Chem Express (MCE). The other 87 thiosemicarbazones used in this study were previously synthesized by our collaborators (1, 2). Their structures are shown in Table 1 and Table S1 to help the reader clearly understand the relationship between structure and activity.
(§2) Strains and culture conditions. Clinically derived C. albicans isolates, including G5, F5, and Gu5, were kindly provided by Professor Joachim Morschhäuser of the University of Würzburg. Other clinical C. albicans isolates were kindly donated by Professor Qingguo Qi of Shandong University and Qianfoshan Hospital of Shandong Province Other Candida strains were obtained from Jinan Central Hospital.
(§3) The zap1 mutant and its complemented strain were kindly provided by Professor Aaron P. Mitchell of Carnegie Mellon University (3). The C. neoformans strains used in this study was kindly donated by Professor Guojian Liao of Southwest University and A. fumigatus strain used in this study was provided by Professor Ling Lu of Nanjing Normal University. Before in vitro and in vivo experiments, all C. albicans strains were grown on YPD agar plates. After culturing at 30°C for 24 h, colonies of each strain were cultured in liquid YPD medium at 30°C with continuous shaking […]
(§4) Antifungal susceptibility testing. To determine in vitro antifungal activities, the microbroth dilution method was carried out in RPMI1640 medium according to the guidelines of the Clinical and Laboratory Standards Institute (4, 5). The initial concentration in RPMI1640 medium was 1 × 10^3 CFU/mL for the C. albicans and C. neoformans suspensions but 1 × 10^4 CFU/mL for A. fumigatus. The range of final drug concentrations was 0.0156–64 μg/mL. The plates were incubated at35°C for 24 […]
(§5) h (for C. albicans, C. krusei, C. tropicalis, C. parapsilosis) or 48 h (for C. neoformans, A. fumigatus). The MIC was determined based on visible growth inhibition compared with the control. All experiments were performed in duplicate. […]

[2] = tested on: C. albicans 11e; test: Microbroth dilution MIC80; assay type: cell-based; details: Candida albicans, 11E
From the text: as §1, §2, §3, §4, §5

[3] = tested on: C. neoformans 108; test: Microbroth dilution MIC80; assay type: cell-based; details: Cryptococcus neoformans, 108
From the text: as §1, §2, §3, §4, §5

[4] = tested on: C. albicans YEM15; test: Microbroth dilution MIC80; assay type: cell-based; details: Candida albicans, YEM15
From the text: as §1, §2, §3, §4, §5

[5] = tested on: C. albicans 28I; test: Microbroth dilution MIC80; assay type: cell-based; details: Candida albicans, 28I
From the text: as §1, §2, §3, §4, §5

[6] = tested on: C. albicans CA1; test: Microbroth dilution MIC80; assay type: cell-based; details: Candida albicans, CA1
From the text: as §1, §2, §3, §4, §5

[7] = tested on: C. albicans 28A; test: Microbroth dilution MIC80; assay type: cell-based; details: Candida albicans, 28A
From the text: as §1, §2, §3, §4, §5

[8] = tested on: C. albicans DSY654; test: Microbroth dilution MIC80; assay type: cell-based; details: Candida albicans
From the text: as §1, §2, §3, §4, §5

[9] = tested on: C. albicans CA4; test: Microbroth dilution MIC80; assay type: cell-based; details: Candida albicans, CA4
From the text: as §1, §2, §3, §4, §5

[10] = tested on: C. albicans 11f; test: Microbroth dilution MIC80; assay type: cell-based; details: Candida albicans, 11F
From the text: as §1, §2, §3, §4, §5

[11] = tested on: C. tropicalis CT2; test: Microbroth dilution MIC80; assay type: cell-based; details: Candida tropicalis, CT2
From the text: as §1, §2, §3, §4, §5

[12] = tested on: C. albicans 28D; test: Microbroth dilution MIC80; assay type: cell-based; details: Candida albicans, 28D
From the text: as §1, §2, §3, §4, §5

[13] = tested on: C. albicans 24g; test: Microbroth dilution MIC80; assay type: cell-based; details: Candida albicans, 24G
From the text: as §1, §2, §3, §4, §5

[14] = tested on: C. albicans YEM13; test: Microbroth dilution MIC80; assay type: cell-based; details: Candida albicans
From the text: as §1, §2, §3, §4, §5

[15] = tested on: C. albicans CA3; test: Microbroth dilution MIC80; assay type: cell-based; details: Candida albicans, CA3
From the text: as §1, §2, §3, §4, §5

[16] = tested on: C. albicans F5; test: Microbroth dilution MIC80; assay type: cell-based; details: Candida albicans, F5
From the text: as §1, §2, §3, §4, §5

[17] = tested on: C. parapsilosis CP001; test: Microbroth dilution MIC80; assay type: cell-based, Candida parapsilosis; details: Lodderomyces parapsilosis, CP001
From the text: as §1, §2, §3, §4, §5

[18] = tested on: C. krusei CK1; test: Microbroth dilution MIC80; assay type: cell-based, Candida krusei; details: Pichia kudriavzevii, CK1
From the text: as §1, §2, §3, §4, §5

[19] = tested on: C. neoformans H99; test: Antifungal susceptibility testing, microbroth dilution MIC; assay type: cell-based; details: Cryptococcus neoformans, H99; C. neoformans wild-type strain; 48 h; read-out: MIC (μg/mL) against fungi H99
From the text: as §1, §2
(§6) The zap1 mutant and its complemented strain were kindly provided by Professor Aaron P. Mitchell of Carnegie Mellon University (3). The C. neoformans strains used in this study was kindly donated by Professor Guojian Liao of Southwest University and A. fumigatus strain used in this study was provided by Professor Ling Lu of Nanjing Normal University. […]
as §4, §5

[20] = tested on: A. fumigatus AF293; test: as above; assay type: cell-based; details: Aspergillus fumigatus, AF293; standard strain of A. fumigatus; 48 h; read-out: MIC (μg/mL) against fungi AF293
From the text: as §1, §2, §6, §4, §5

[21] = Cytotoxicity testing (MTT); assay type: cell-based, human; details: human, 48 h, MTT
Description: (§7) h (for C. albicans, C. krusei, C. tropicalis, C. parapsilosis) or 48 h (for C. neoformans, A. fumigatus). The MIC was determined based on visible growth inhibition compared with the control. All experiments were performed in duplicate.
(§8) Cytotoxicity testing. The cell lines HK2 and 16HBE were used to evaluate the cytotoxicity of 19ak, 19k and 19t. Cells in DMEM containing 10% fetal bovine serum (Gibco) were seeded in 96-well tissue culture plates at a cell density of 1 × 10^4 cells/mL and incubated for 24 h to allow adhesion. The supernatant was then replaced with fresh DMEM containing various concentrations of 19ak, 19k and 19t. The plates were subsequently incubated for an additional 48 h at 37°C with 5% CO2, followed by the addition of 10 μL of MTT solution to each well and incubation at 37°C for 4 h.
(§9) The effects of the compounds on cell proliferation were detected by measuring the absorbance at 570 nm in a microplate reader (BioTek, VT, USA). Three independent experiments were conducted. […]

[22] = tested on: human bronchial epithelial cell line 16HBE; test: Cytotoxicity testing (MTT); assay type: cell-based; details: ratio of IC50 against 16HBE to MIC80 against C. albicans SC5314
Description: as §7, §8, §9

[23] = tested on: human renal epithelial cell line HK2; test: Cytotoxicity testing (MTT); assay type: cell-based; details: ratio of IC50 against HK2 to MIC80 against C. albicans SC5314
Description: as §7, §8, §9

[24] = tested on: C. albicans G5; test: microbe, parasite or virus in culture; assay type: cell-based; details: Candida albicans, G5
From the text: as §1, §2, §3, §4, §5

[25] = tested on: C. albicans Gu5; test: microbe, parasite or virus in culture; assay type: cell-based; details: Candida albicans, GU5
From the text: as §1, §2, §3, §4, §5

[26] = tested on: C. albicans SC5314; test: Antifungal susceptibility testing, microbroth dilution MIC; assay type: cell-based; details: Candida albicans
From the text: as §1, §2, §3, §4, §5

[27] = Cytotoxicity testing (MTT); assay type: cell-based, human; details: human, HepG2 cells (hepatocellular carcinoma cell line)
[28] = tested on: human hepatocellular carcinoma cell line HepG2; test: Cytotoxicity testing (MTT); assay type: cell-based; details: ratio of IC50 against HepG2 to MIC80 against C. albicans SC5314
[29] = tested on: C. albicans SC5314; test: Minimal fungicidal concentration (MFC); assay type: cell-based; details: Candida albicans, read-out: MFC against C. albicans SC5314
[30] = tested on: C. albicans SC5314; test: Respiratory activity by CTC staining; assay type: cell-based, Candida albicans; details: 6 h, 1 mM CTC; 19ak 0.125-1 μg/mL, TPEN 0.05-0.4 μg/mL
Description: as §7
Cytotoxicity testing. The cell lines HK2 and 16HBE were used to evaluate the cytotoxicity of 19ak, 19k and 19t. Cells in DMEM containing 10% fetal bovine serum (Gibco) were seeded in 96-well tissue culture plates at a cell density of 1 × 10^4 cells/mL and incubated for 24 h to allow adhesion. The supernatant was then replaced with fresh DMEM containing various concentrations of 19ak, 19k and 19t. […]
The effects of the compounds on cell proliferation were detected by measuring the absorbance at 570 nm in a microplate reader (BioTek, VT, USA). […]
the fluorescent complex […] (CTF) is commonly used to indicate the intensity of microbial respiration. C. albicans SC5314 treated with 19ak was stained with 1 mM CTC for 30 min, followed by flow cytometry analysis of respiratory activity based on fluorescence intensity. Images of cells were obtained using a fluorescence microscope (IX71, Olympus, Tokyo, Japan). […] After an additional 2 h of incubation, OD450 in each well was detected with a microplate reader. […]
Mitochondrial complex activity was expressed as nmol/min/mg protein. […]

[31] = tested on: C. albicans SC5314; test: qPCR of genes associated with ribosome biogenesis; assay type: cell-based, Candida albicans; details: CPX 0.5 or 2 μg/mL 8 h; DFO 64 µg/mL 6 h; TPEN 0.05 or 0.2 μg/mL 6 h
Description: Determination of SOD activity. SOD activity was measured using the Superoxide Dismutase Activity Assay Kit (Njjcbio, Nanjing, China) following the manufacturer's instructions. An overnight culture of C. albicans SC5314 was adjusted to 1 × 10^7 cells/mL with RPMI1640 medium and treated with 19ak at a final concentration of 0, 0.125, 0.25, 0.5, or 1 μg/mL for 6 h. After collection by centrifugation, the cells were broken by glass beads in extraction buffer and centrifuged at 4°C. The absorbance of the supernatant of each sample was measured with a microplate reader at450 nm.
Determination of catalase (CAT) activity. CAT activity was measured by using a Catalase Assay Kit (Solarbio, Beijing, China) following the manufacturer's instructions. An overnight culture of C. albicans SC5314 was adjusted to 1 × 10^6 cells/mL with RPMI1640 medium and treated as described above for SOD activity.
The decomposition of H2O2 is directly accompanied by a decrease in absorbance at 240 nm, and the difference in absorbance per unit time (ΔA240) is a measure of […]
Quantitative real-time polymerase chain reaction (qPCR) analysis. C. albicans SC5314 cells (1 × 10^6 cells/mL) were incubated with or without 19ak (0.5,2 […]
Total RNA was extracted using the hot phenol method, and the RNA quality was analyzed using a spectrophotometer (Eppendorf, Hamburg, Germany). The RNA was converted to cDNA using a cDNA Reverse
Transcription kit (Accurate Biotechnology, Hunan, China). PCR detection based on SYBR Green was performed on an Eppendorf real-time PCR system (Eppendorf, […]
Drug resistance study. Drug resistance studies were carried out by repeatedly treating C. albicans with an antifungal agent followed by MIC determination using […]

C/C(=N\NC(=S)Nc1ccc(Br)cc1)c1ccccn1 [Compound 19t]
MIC80 [1]: 0.125 µg/mL (≈ 0.358 µM) | MIC80 [2]: 0.5 µg/mL (≈ 1.43 µM) | MIC80 [3]: 0.031 µg/mL (≈ 0.0888 µM) | MIC80 [4]: 1 µg/mL (≈ 2.86 µM) | MIC80 [5]: 0.5 µg/mL (≈ 1.43 µM) | MIC80 [6]: 0.25 µg/mL (≈ 0.716 µM) | MIC80 [7]: 0.25 µg/mL (≈ 0.716 µM) | MIC80 [8]: 0.25 µg/mL (≈ 0.716 µM) | MIC80 [9]: 0.25 µg/mL (≈ 0.716 µM) | MIC80 [10]: 0.25 µg/mL (≈ 0.716 µM) | MIC80 [11]: 0.5 µg/mL (≈ 1.43 µM) | MIC80 [12]: 0.25 µg/mL (≈ 0.716 µM) | MIC80 [13]: 0.25 µg/mL (≈ 0.716 µM) | MIC80 [14]: 1 µg/mL (≈ 2.86 µM) | MIC80 [15]: 0.25 µg/mL (≈ 0.716 µM) | MIC80 [16]: 0.25 µg/mL (≈ 0.716 µM) | MIC80 [17]: 0.5 µg/mL (≈ 1.43 µM) | MIC80 [18]: 0.5 µg/mL (≈ 1.43 µM) | MIC [19]: 0.031 µg/mL (≈ 0.0888 µM) | MIC [20]: 0.125 µg/mL (≈ 0.358 µM) | IC50 at 48 h ([21]; 16HBE cells (bronchial epithelial cell line), 16HBE cells): 1.43 µg/mL (≈ 4.09 µM) | IC50 at 48 h ([21]; HK2 cells (renal epithelial cell line), HK2 cells): 3.46 µg/mL (≈ 9.9 µM) | Selectivity index 16HBE [22]: 2.858 | Selectivity index HK2 [23]: 6.918 | MIC80 [24]: 1 µg/mL (≈ 2.86 µM) | MIC80 [25]: 1 µg/mL (≈ 2.86 µM) | MIC ([26]; SC5314, C. albicans wild-type strain, RPMI1640, 35°C, 24 h, read-out: MIC (μg/mL) against fungi SC5314): 0.5 µg/mL (≈ 1.43 µM) | IC50 [27]: 1.39 µg/mL (≈ 3.98 µM) | Selectivity index HepG2 [28]: 2.778 | MFC [29]: 64 µg/mL (≈ 183 µM)

c1ccc(CN(CCN(Cc2ccccn2)Cc2ccccn2)Cc2ccccn2)nc1 [TPEN, N,N,N′,N′-tetrakis (2-pyridylmethyl) ethylenediamine, reference compound]
Mitochondrial respiratory activity (CTC fluorescence intensity) [30]: failed to observe reduced mitochondrial respiration | Expression of genes associated with ribosome biogenesis (qPCR) [31]: downregulated | MIC ([26]; SC5314, read-out: MIC against C. albicans SC5314 (Fig. S2 legend)): 0.05 µg/mL (≈ 0.118 µM)
